Measured values reported in the NIST ThermoML archive (doi:10.1021/acs.jced.9b00752).
Numbers after ± are expanded uncertainties.

Assay: mn = molality of the nth substance listed, in mol/kg
Details: 100 kPa, Liquid, Vibrating tube method

Structure (SMILES): O=C(O)[C@@H]1CCCN1 [L-proline] + O
- mass density (278.65 K, m1 = 0.0132): 1000.41 ± 0.11 kg/m3
- mass density (278.65 K, m1 = 0.0326): 1001.08 ± 0.11 kg/m3
- mass density (278.65 K, m1 = 0.0542): 1001.81 ± 0.11 kg/m3
- mass density (278.65 K, m1 = 0.0692): 1002.32 ± 0.11 kg/m3
- mass density (278.65 K, m1 = 0.0808): 1002.71 ± 0.11 kg/m3
- mass density (278.65 K, m1 = 0.1014): 1003.42 ± 0.11 kg/m3
- mass density (278.65 K, m1 = 0.1196): 1004.08 ± 0.11 kg/m3
- mass density (278.65 K, m1 = 0.1326): 1004.49 ± 0.11 kg/m3
- mass density (278.65 K, m1 = 0.1555): 1005.24 ± 0.15 kg/m3
- mass density (278.65 K, m1 = 0.1568): 1005.37 ± 0.15 kg/m3
- mass density (278.65 K, m1 = 0.1835): 1006.18 ± 0.11 kg/m3
- mass density (278.65 K, m1 = 0.2076): 1006.97 ± 0.11 kg/m3
- mass density (278.65 K, m1 = 0.2212): 1007.63 ± 0.12 kg/m3
- mass density (279.15 K, m1 = 0.0132): 1000.39 ± 0.11 kg/m3
- mass density (279.15 K, m1 = 0.0326): 1001.06 ± 0.11 kg/m3
- mass density (279.15 K, m1 = 0.0542): 1001.79 ± 0.11 kg/m3
- mass density (279.15 K, m1 = 0.0692): 1002.3 ± 0.11 kg/m3
- mass density (279.15 K, m1 = 0.0808): 1002.7 ± 0.11 kg/m3
- mass density (279.15 K, m1 = 0.1014): 1003.4 ± 0.11 kg/m3
- mass density (279.15 K, m1 = 0.1196): 1004.06 ± 0.11 kg/m3
- mass density (279.15 K, m1 = 0.1326): 1004.47 ± 0.11 kg/m3
- mass density (279.15 K, m1 = 0.1555): 1005.21 ± 0.15 kg/m3
- mass density (279.15 K, m1 = 0.1568): 1005.35 ± 0.15 kg/m3
- mass density (279.15 K, m1 = 0.1835): 1006.15 ± 0.11 kg/m3
- mass density (279.15 K, m1 = 0.2076): 1006.94 ± 0.11 kg/m3
- mass density (279.15 K, m1 = 0.2212): 1007.6 ± 0.12 kg/m3
- mass density (279.65 K, m1 = 0.0132): 1000.38 ± 0.11 kg/m3
- mass density (279.65 K, m1 = 0.0326): 1001.04 ± 0.11 kg/m3
- mass density (279.65 K, m1 = 0.0542): 1001.77 ± 0.11 kg/m3
- mass density (279.65 K, m1 = 0.0692): 1002.27 ± 0.11 kg/m3
- mass density (279.65 K, m1 = 0.0808): 1002.67 ± 0.11 kg/m3
- mass density (279.65 K, m1 = 0.1014): 1003.37 ± 0.11 kg/m3
- mass density (279.65 K, m1 = 0.1196): 1004.03 ± 0.11 kg/m3
- mass density (279.65 K, m1 = 0.1326): 1004.44 ± 0.11 kg/m3
- mass density (279.65 K, m1 = 0.1555): 1005.19 ± 0.15 kg/m3
- mass density (279.65 K, m1 = 0.1568): 1005.32 ± 0.15 kg/m3
- mass density (279.65 K, m1 = 0.1835): 1006.12 ± 0.11 kg/m3
- mass density (279.65 K, m1 = 0.2076): 1006.91 ± 0.11 kg/m3
- mass density (279.65 K, m1 = 0.2212): 1007.57 ± 0.12 kg/m3
- mass density (280.15 K, m1 = 0.0132): 1000.35 ± 0.11 kg/m3
- mass density (280.15 K, m1 = 0.0326): 1001.02 ± 0.11 kg/m3
- mass density (280.15 K, m1 = 0.0542): 1001.75 ± 0.11 kg/m3
- mass density (280.15 K, m1 = 0.0692): 1002.25 ± 0.11 kg/m3
- mass density (280.15 K, m1 = 0.0808): 1002.64 ± 0.11 kg/m3
- mass density (280.15 K, m1 = 0.1014): 1003.35 ± 0.11 kg/m3
- mass density (280.15 K, m1 = 0.1196): 1004 ± 0.11 kg/m3
- mass density (280.15 K, m1 = 0.1326): 1004.41 ± 0.11 kg/m3
- mass density (280.15 K, m1 = 0.1555): 1005.15 ± 0.15 kg/m3
- mass density (280.15 K, m1 = 0.1568): 1005.29 ± 0.15 kg/m3
- mass density (280.15 K, m1 = 0.1835): 1006.09 ± 0.11 kg/m3
- mass density (280.15 K, m1 = 0.2076): 1006.87 ± 0.11 kg/m3
- mass density (280.15 K, m1 = 0.2212): 1007.53 ± 0.12 kg/m3
- mass density (280.65 K, m1 = 0.0132): 1000.33 ± 0.11 kg/m3
- mass density (280.65 K, m1 = 0.0326): 1000.99 ± 0.11 kg/m3
- mass density (280.65 K, m1 = 0.0542): 1001.72 ± 0.11 kg/m3
- mass density (280.65 K, m1 = 0.0692): 1002.22 ± 0.11 kg/m3
- mass density (280.65 K, m1 = 0.0808): 1002.61 ± 0.11 kg/m3
- mass density (280.65 K, m1 = 0.1014): 1003.31 ± 0.11 kg/m3
- mass density (280.65 K, m1 = 0.1196): 1003.97 ± 0.11 kg/m3
- mass density (280.65 K, m1 = 0.1326): 1004.38 ± 0.11 kg/m3
- mass density (280.65 K, m1 = 0.1555): 1005.12 ± 0.15 kg/m3
- mass density (280.65 K, m1 = 0.1568): 1005.25 ± 0.15 kg/m3
- mass density (280.65 K, m1 = 0.1835): 1006.05 ± 0.11 kg/m3
- mass density (280.65 K, m1 = 0.2076): 1006.83 ± 0.11 kg/m3
- mass density (280.65 K, m1 = 0.2212): 1007.5 ± 0.12 kg/m3
- mass density (281.15 K, m1 = 0.0132): 1000.3 ± 0.11 kg/m3
- mass density (281.15 K, m1 = 0.0326): 1000.97 ± 0.11 kg/m3
- mass density (281.15 K, m1 = 0.0542): 1001.69 ± 0.11 kg/m3
- mass density (281.15 K, m1 = 0.0692): 1002.19 ± 0.11 kg/m3
- mass density (281.15 K, m1 = 0.0808): 1002.59 ± 0.11 kg/m3
- mass density (281.15 K, m1 = 0.1014): 1003.28 ± 0.11 kg/m3
- mass density (281.15 K, m1 = 0.1196): 1003.94 ± 0.11 kg/m3
- mass density (281.15 K, m1 = 0.1326): 1004.35 ± 0.11 kg/m3
- mass density (281.15 K, m1 = 0.1555): 1005.09 ± 0.15 kg/m3
- mass density (281.15 K, m1 = 0.1568): 1005.22 ± 0.14 kg/m3
- mass density (281.15 K, m1 = 0.1835): 1006.02 ± 0.11 kg/m3
- mass density (281.15 K, m1 = 0.2076): 1006.8 ± 0.11 kg/m3
- mass density (281.15 K, m1 = 0.2212): 1007.46 ± 0.12 kg/m3
- mass density (281.65 K, m1 = 0.0132): 1000.27 ± 0.11 kg/m3
- mass density (281.65 K, m1 = 0.0326): 1000.93 ± 0.11 kg/m3
- mass density (281.65 K, m1 = 0.0542): 1001.66 ± 0.11 kg/m3
- mass density (281.65 K, m1 = 0.0692): 1002.15 ± 0.11 kg/m3
- mass density (281.65 K, m1 = 0.0808): 1002.55 ± 0.11 kg/m3
- mass density (281.65 K, m1 = 0.1014): 1003.25 ± 0.11 kg/m3
- mass density (281.65 K, m1 = 0.1196): 1003.9 ± 0.11 kg/m3
- mass density (281.65 K, m1 = 0.1326): 1004.31 ± 0.11 kg/m3
- mass density (281.65 K, m1 = 0.1555): 1005.04 ± 0.15 kg/m3
- mass density (281.65 K, m1 = 0.1568): 1005.18 ± 0.15 kg/m3
- mass density (281.65 K, m1 = 0.1835): 1005.98 ± 0.11 kg/m3
- mass density (281.65 K, m1 = 0.2076): 1006.75 ± 0.11 kg/m3
- mass density (281.65 K, m1 = 0.2212): 1007.41 ± 0.12 kg/m3
- mass density (282.15 K, m1 = 0.0132): 1000.23 ± 0.11 kg/m3
- mass density (282.15 K, m1 = 0.0326): 1000.89 ± 0.11 kg/m3
- mass density (282.15 K, m1 = 0.0542): 1001.62 ± 0.11 kg/m3
- mass density (282.15 K, m1 = 0.0692): 1002.12 ± 0.11 kg/m3
- mass density (282.15 K, m1 = 0.0808): 1002.5 ± 0.11 kg/m3
- mass density (282.15 K, m1 = 0.1014): 1003.2 ± 0.11 kg/m3
- mass density (282.15 K, m1 = 0.1196): 1003.86 ± 0.11 kg/m3
- mass density (282.15 K, m1 = 0.1326): 1004.26 ± 0.11 kg/m3
- mass density (282.15 K, m1 = 0.1555): 1005 ± 0.15 kg/m3
- mass density (282.15 K, m1 = 0.1568): 1005.13 ± 0.15 kg/m3
- mass density (282.15 K, m1 = 0.1835): 1005.93 ± 0.11 kg/m3
- mass density (282.15 K, m1 = 0.2076): 1006.7 ± 0.11 kg/m3
- mass density (282.15 K, m1 = 0.2212): 1007.36 ± 0.12 kg/m3
- mass density (282.65 K, m1 = 0.0132): 1000.19 ± 0.11 kg/m3
- mass density (282.65 K, m1 = 0.0326): 1000.85 ± 0.11 kg/m3
- mass density (282.65 K, m1 = 0.0542): 1001.57 ± 0.11 kg/m3
- mass density (282.65 K, m1 = 0.0692): 1002.07 ± 0.11 kg/m3
- mass density (282.65 K, m1 = 0.0808): 1002.46 ± 0.11 kg/m3
- mass density (282.65 K, m1 = 0.1014): 1003.16 ± 0.11 kg/m3
- mass density (282.65 K, m1 = 0.1196): 1003.81 ± 0.11 kg/m3
- mass density (282.65 K, m1 = 0.1326): 1004.21 ± 0.11 kg/m3
- mass density (282.65 K, m1 = 0.1555): 1004.95 ± 0.15 kg/m3
- mass density (282.65 K, m1 = 0.1568): 1005.08 ± 0.15 kg/m3
- mass density (282.65 K, m1 = 0.1835): 1005.88 ± 0.11 kg/m3
- mass density (282.65 K, m1 = 0.2076): 1006.65 ± 0.11 kg/m3
- mass density (282.65 K, m1 = 0.2212): 1007.31 ± 0.12 kg/m3
- mass density (283.15 K, m1 = 0.0132): 1000.15 ± 0.11 kg/m3
- mass density (283.15 K, m1 = 0.0326): 1000.81 ± 0.11 kg/m3
- mass density (283.15 K, m1 = 0.0542): 1001.53 ± 0.11 kg/m3
- mass density (283.15 K, m1 = 0.0692): 1002.03 ± 0.11 kg/m3
- mass density (283.15 K, m1 = 0.0808): 1002.41 ± 0.11 kg/m3
- mass density (283.15 K, m1 = 0.1014): 1003.11 ± 0.11 kg/m3
- mass density (283.15 K, m1 = 0.1196): 1003.76 ± 0.11 kg/m3
- mass density (283.15 K, m1 = 0.1326): 1004.16 ± 0.11 kg/m3
- mass density (283.15 K, m1 = 0.1555): 1004.9 ± 0.15 kg/m3
- mass density (283.15 K, m1 = 0.1568): 1005.03 ± 0.15 kg/m3
- mass density (283.15 K, m1 = 0.1835): 1005.83 ± 0.11 kg/m3
- mass density (283.15 K, m1 = 0.2076): 1006.6 ± 0.11 kg/m3
- mass density (283.15 K, m1 = 0.2212): 1007.26 ± 0.12 kg/m3
